ChEMBL document CHEMBL5338710, “Discovery of dearomatized isoprenylated acylphloroglucinols with colon tumor suppressive activities in mice via inhibiting NFκB-FAT1-PDCD4 signaling activation” (Eur J Med Chem, 2022)
The source made the active and inactive calls. No cut-off for these calls is given here.

Test system: HCT-116
Assay: Antiproliferative activity against human HCT-116 cells assessed as reduction in cell viability at 5 uM measured after 48 hrs by MTT assay
Type: functional, cell-based
Details: not given
In the case of `C=C(C)[C@@H]1CC[C@@](C)(O)[C@H]1CC1=C(O)C(C)(CC=C(C)C)C(=O)C(C(=O)C(C)CC)=C1O` (some centres undefined), the Activity is reported as “Active”.
In the case of `COC[C@@H]1C2=C(O)C(CC=C(C)C)(CC=C(C)C)C(=O)C(C(=O)C(C)C)=C2OC1(C)C`, the Activity is reported as “Active”.
In the case of `CCC(C)C(=O)C1=C(O)C2=C(OC(C)(C)[C@@H]3CC[C@@](C)(O)[C@@H]3C2)[C@](C)(CC=C(C)C)C1=O` (some centres undefined), the Activity is reported as “Active”.
With `C=C(C)[C@H]1CC[C@@](C)(O)[C@@H](C2=C(O)[C@](C)(CC=C(C)C)C(=O)C(C(=O)C(C)C)=C2O)C1` the Activity was “Active”.
For `C=C(C)[C@@H]1CC[C@@]2(C)OC3=C(CC12)C(O)=C(C(=O)C(C)C)C(=O)C3(C)CC=C(C)C` (some centres undefined), the Activity was “Active”.
With `C=C(C)[C@@H]1CC[C@@](C)(O)[C@H]1CC1=C2O[C@H](C(C)(C)O)C[C@]2(CC=C(C)C)C(=O)C(C(=O)c2ccccc2)=C1O` the Activity was “Active”.
In the case of `CC(C)=CCC1(CC=C(C)C)C(=O)C(C(=O)C(C)C)=C(O)C([C@H]2C[C@]3(C(C)(C)O)CC[C@@]2(C)O3)=C1O`, the Activity is reported as “Active”.
With `CC(C)=CC[C@@]12C(=O)C(C(=O)C(C)C)=C(O)C(C)=C1O[C@]1(C)CCC(C(C)C)=C[C@H]21` the Activity was “Active”.
For `C=C(C)[C@@H]1CC[C@@](C)(O)[C@H]1CC1=C(O)C(CC=C(C)C)(CC=C(C)C)C(=O)C(C(=O)c2ccccc2)=C1O`, the Activity was “Active”.
With `C=C(C)[C@H]1CC[C@@](C)(O)[C@@H](C2=C(O)C(CC=C(C)C)(CC=C(C)C)C(=O)C(C(=O)c3ccccc3)=C2O)C1` the Activity was “Active”.
With `CC(C)=CCC1(C)C(=O)C(C(=O)C(C)C)=C(O)C([C@@H]2C[C@H]3CC[C@]2(C)OC3(C)C)=C1O` (some centres undefined) the Activity was “Active”.
With `CC(C)=CC[C@]1(C)C(=O)C(C(=O)C(C)C)=C(O)C2=C1OC(C)(C)C1CC[C@@](C)(O)[C@H]1C2` (some centres undefined) the Activity was “Active”.
For `CC(C)=CC[C@]1(C)C(=O)C(C(=O)C(C)C)=C(O)C2=C1O[C@]1(C)CC[C@]3(C(C)C)O[C@]13[C@H]2O`, the Activity was “Active”.
With `CCC(C)C(=O)C1=C(O)C2=C(OC(C)(C)C3CC[C@@](C)(O)[C@H]3C2)[C@](C)(CC=C(C)C)C1=O` (some centres undefined) the Activity was “Active”.
In the case of `CC(C)=CCC1(CC=C(C)C)C(=O)/C(=C(/O)c2ccccc2)C2=C(C1O)[C@H]1C=C(C(C)C)CC[C@@]1(C)O2` (some centres undefined), the Activity is reported as “Active”.
In the case of `C=C(C)[C@@H]1CC[C@@]2(C)OC3=C(CC12)C(O)=C(C(=O)c1ccccc1)C(=O)C3(CC=C(C)C)CC=C(C)C` (some centres undefined), the Activity is reported as “Active”.
For `CC(C)=CC[C@@]1(C)C(=O)C(C(=O)C(C)C)=C(O)C([C@H]2C[C@]3(C(C)(C)O)CC[C@@]2(C)O3)=C1O`, the Activity was “Active”.
With `C=C(C)[C@@H]1CC[C@@](C)(O)[C@H]1CC1=C(O)C(CC=C(C)C)(CC=C(C)C)C(=O)C(C(=O)C(C)CC)=C1O` (some centres undefined) the Activity was “Active”.
With `C=C(C)[C@H]1CC[C@@](C)(O)[C@@H](C2=C(O)[C@@](C)(CC=C(C)C)C(=O)C(C(=O)C(C)CC)=C2O)C1` (some centres undefined) the Activity was “Active”.
For `CC(C)=CCC1(CC=C(C)C)C(=O)C(C(=O)C(C)C)=C(O)C2=C1OC(C)(C)[C@@H]1CC[C@@](C)(O)[C@@H]1C2`, the Activity was “Active”.
With `CC(C)=CCC1(CC=C(C)C)C(=O)C(C(=O)c2ccccc2)=C(O)C([C@H]2C=C(C(C)C)CC[C@@]2(C)O)=C1O` the Activity was “Active”.
With `CC(C)=CC[C@@]12C[C@@H](C(C)(C)O)OC1=C(CC1[C@H]3CC[C@]1(C)OC3(C)C)C(O)=C(C(=O)C(C)C)C2=O` (some centres undefined) the Activity was “Active”.
For `CC(C)=CC[C@@]1(C)C(=O)C(C(=O)C(C)C)=C(O)C2=C1O[C@]1(C)CC[C@@]3(C(C)C)O[C@@]13[C@H]2O`, the Activity was “Active”.
In the case of `C=C(C)[C@@H]1CC[C@](C)(O)[C@H]1CC1=C2O[C@H](C(C)(C)O)C[C@]2(CC=C(C)C)C(=O)C(C(=O)c2ccccc2)=C1O`, the Activity is reported as “Active”.
For `C=C(C)[C@@H]1CC[C@@](C)(O)[C@H]1CC1=C2O[C@H](C(C)(C)O)C[C@]2(CC=C(C)C)C(=O)C(C(=O)C(C)C)=C1O`, the Activity was “Active”.
With `CC(C)=CCC1(CC=C(C)C)C(=O)C(C(=O)c2ccccc2)=C(O)C([C@@H]2C[C@H]3CC[C@]2(C)OC3(C)C)=C1O` the Activity was “Active”.
With `C=C(C)[C@@H]1CC[C@@](C)(O)[C@H]1CC1=C2O[C@H](C(C)(C)O)C[C@]2(C)C(=O)C(C(=O)C(C)CC)=C1O` (some centres undefined) the Activity was “Active”.
In the case of `CC(C)=CCC1(CC=C(C)C)C(=O)C(C(=O)C(C)C)=C(O)C2=C1O[C@]1(C)CCC3(C(C)C)OC31[C@H]2O` (some centres undefined), the Activity is reported as “Active”.
In the case of `C=C(C)[C@H]1CC[C@@]2(C)OC3=C(CC12)C(O)=C(C(=O)C(C)CC)C(=O)C3(C)CC=C(C)C` (some centres undefined), the Activity is reported as “Active”.

Test system: HCT-116
Assay: Antiproliferative activity against human HCT-116 cells assessed as reduction in cell viability measured after 48 hrs by MTT assay
Type: functional, cell-based
Details: HCT-116, 48 h
`C=C(C)[C@@H]1CC[C@@](C)(O)[C@H]1CC1=C(O)C(C)(CC=C(C)C)C(=O)C(C(=O)C(C)CC)=C1O` (some centres undefined) showed an IC50 of 5.63 µM.
With `C=C(C)[C@H]1CC[C@@](C)(O)[C@@H](C2=C(O)[C@](C)(CC=C(C)C)C(=O)C(C(=O)C(C)C)=C2O)C1` the IC50 was 2.63 µM.
With `C=C(C)[C@H]1CC[C@@](C)(O)[C@@H](C2=C(O)C(CC=C(C)C)(CC=C(C)C)C(=O)C(C(=O)c3ccccc3)=C2O)C1` the IC50 was 3.67 µM.
Compound `C=C(C)[C@@H]1CC[C@@](C)(O)[C@H]1CC1=C(O)C(CC=C(C)C)(CC=C(C)C)C(=O)C(C(=O)C(C)CC)=C1O` (some centres undefined) has an IC50 of 2.46 µM.
`C=C(C)[C@H]1CC[C@@](C)(O)[C@@H](C2=C(O)[C@@](C)(CC=C(C)C)C(=O)C(C(=O)C(C)CC)=C2O)C1` (some centres undefined) gave an IC50 of 2.32 µM.

Test system: not listed separately
Assay: Antiproliferative activity against human PBMC cells assessed as reduction in cell viability measured after 48 hrs by MTT assay
Type: toxicity, cell-based
Details: not given
Compound `C=C(C)[C@@H]1CC[C@@](C)(O)[C@H]1CC1=C(O)C(C)(CC=C(C)C)C(=O)C(C(=O)C(C)CC)=C1O` (some centres undefined) has an IC50 at 48 h greater than 100 µM.
In the case of `C=C(C)[C@H]1CC[C@@](C)(O)[C@@H](C2=C(O)[C@](C)(CC=C(C)C)C(=O)C(C(=O)C(C)C)=C2O)C1`, the IC50 at 48 h is reported as 14.4 µM.
Compound `C=C(C)[C@H]1CC[C@@](C)(O)[C@@H](C2=C(O)C(CC=C(C)C)(CC=C(C)C)C(=O)C(C(=O)c3ccccc3)=C2O)C1` has an IC50 at 48 h of 24 µM.
For `C=C(C)[C@@H]1CC[C@@](C)(O)[C@H]1CC1=C(O)C(CC=C(C)C)(CC=C(C)C)C(=O)C(C(=O)C(C)CC)=C1O` (some centres undefined), the IC50 at 48 h was 10 µM.
For `C=C(C)[C@H]1CC[C@@](C)(O)[C@@H](C2=C(O)[C@@](C)(CC=C(C)C)C(=O)C(C(=O)C(C)CC)=C2O)C1` (some centres undefined), the IC50 at 48 h was 19.6 µM.

Molecular target: Nuclear factor NF-kappa-B complex (Homo sapiens) (UniProt Q00653+P19838+Q04206)
Sequence (P19838 whole entry, looked up): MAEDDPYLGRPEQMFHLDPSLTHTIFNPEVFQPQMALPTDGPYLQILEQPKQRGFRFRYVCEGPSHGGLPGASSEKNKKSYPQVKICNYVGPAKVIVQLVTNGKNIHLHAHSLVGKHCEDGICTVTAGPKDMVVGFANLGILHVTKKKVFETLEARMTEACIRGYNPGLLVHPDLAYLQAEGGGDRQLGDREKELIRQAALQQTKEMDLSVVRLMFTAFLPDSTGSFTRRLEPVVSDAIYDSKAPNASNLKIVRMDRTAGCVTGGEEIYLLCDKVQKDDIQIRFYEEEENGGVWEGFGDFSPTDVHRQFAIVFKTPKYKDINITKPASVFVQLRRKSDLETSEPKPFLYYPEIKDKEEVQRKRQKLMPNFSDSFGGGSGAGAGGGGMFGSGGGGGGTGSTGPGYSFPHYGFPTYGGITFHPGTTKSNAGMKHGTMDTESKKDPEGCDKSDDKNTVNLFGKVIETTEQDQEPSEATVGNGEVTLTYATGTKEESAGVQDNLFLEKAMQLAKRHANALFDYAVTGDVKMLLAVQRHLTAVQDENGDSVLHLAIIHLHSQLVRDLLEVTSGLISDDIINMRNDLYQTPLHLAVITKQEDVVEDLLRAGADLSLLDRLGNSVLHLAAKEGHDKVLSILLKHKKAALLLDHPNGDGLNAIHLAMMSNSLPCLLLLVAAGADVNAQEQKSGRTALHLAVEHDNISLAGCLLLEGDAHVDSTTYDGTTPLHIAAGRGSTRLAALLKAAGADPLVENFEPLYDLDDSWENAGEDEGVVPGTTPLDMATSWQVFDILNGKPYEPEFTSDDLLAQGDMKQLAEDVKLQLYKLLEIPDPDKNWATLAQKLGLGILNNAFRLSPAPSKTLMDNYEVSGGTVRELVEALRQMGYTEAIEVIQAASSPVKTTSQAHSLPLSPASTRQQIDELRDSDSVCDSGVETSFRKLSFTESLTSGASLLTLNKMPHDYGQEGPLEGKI
Sequence (Q00653 whole entry, looked up): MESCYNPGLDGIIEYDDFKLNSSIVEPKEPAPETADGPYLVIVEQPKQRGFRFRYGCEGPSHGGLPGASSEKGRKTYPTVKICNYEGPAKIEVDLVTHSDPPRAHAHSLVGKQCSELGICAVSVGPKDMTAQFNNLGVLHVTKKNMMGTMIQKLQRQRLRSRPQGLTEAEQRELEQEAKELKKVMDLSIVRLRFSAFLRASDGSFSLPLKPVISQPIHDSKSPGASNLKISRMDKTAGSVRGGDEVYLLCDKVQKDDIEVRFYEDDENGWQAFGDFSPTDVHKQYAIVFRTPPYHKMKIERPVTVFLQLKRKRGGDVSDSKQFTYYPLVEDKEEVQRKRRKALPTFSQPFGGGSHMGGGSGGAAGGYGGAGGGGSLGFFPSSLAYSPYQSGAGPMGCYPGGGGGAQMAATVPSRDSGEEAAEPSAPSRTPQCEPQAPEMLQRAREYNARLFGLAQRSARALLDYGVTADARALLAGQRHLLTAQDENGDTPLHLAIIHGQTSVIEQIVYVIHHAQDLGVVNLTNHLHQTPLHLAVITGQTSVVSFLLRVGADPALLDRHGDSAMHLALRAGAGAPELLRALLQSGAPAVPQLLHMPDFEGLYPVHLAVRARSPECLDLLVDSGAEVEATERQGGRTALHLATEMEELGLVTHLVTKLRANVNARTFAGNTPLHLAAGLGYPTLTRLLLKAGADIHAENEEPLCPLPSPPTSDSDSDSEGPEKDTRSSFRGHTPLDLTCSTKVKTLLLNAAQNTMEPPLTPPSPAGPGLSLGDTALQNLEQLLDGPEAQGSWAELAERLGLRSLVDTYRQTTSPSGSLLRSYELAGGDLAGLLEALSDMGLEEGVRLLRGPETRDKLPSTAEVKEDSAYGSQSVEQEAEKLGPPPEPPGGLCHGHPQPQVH
Sequence (Q04206 whole entry, looked up): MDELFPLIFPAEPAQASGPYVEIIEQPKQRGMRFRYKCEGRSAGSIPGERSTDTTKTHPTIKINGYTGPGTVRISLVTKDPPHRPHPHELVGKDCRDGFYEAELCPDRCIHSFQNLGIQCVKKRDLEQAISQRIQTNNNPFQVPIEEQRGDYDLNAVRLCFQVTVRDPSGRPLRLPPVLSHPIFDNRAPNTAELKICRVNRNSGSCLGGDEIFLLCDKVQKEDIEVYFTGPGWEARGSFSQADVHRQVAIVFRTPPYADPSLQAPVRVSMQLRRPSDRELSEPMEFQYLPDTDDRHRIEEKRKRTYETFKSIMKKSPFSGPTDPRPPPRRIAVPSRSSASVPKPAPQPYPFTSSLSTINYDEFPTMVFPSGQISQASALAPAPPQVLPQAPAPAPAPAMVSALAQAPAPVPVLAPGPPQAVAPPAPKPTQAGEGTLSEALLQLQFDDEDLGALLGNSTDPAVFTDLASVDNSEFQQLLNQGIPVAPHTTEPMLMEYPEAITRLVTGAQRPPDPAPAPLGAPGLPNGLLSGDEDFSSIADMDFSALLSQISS
Assay: Inhibition of TNFalpha induced-NFkB phosphorylation in human HCT-116 cells at 1 to 5 uM pretreated for 24 hrs followed by TNFalpha induction and measured after 24 hrs by Western blot analysis
Type: cell-based
Details: dose 1-5 µM, time 48.0 hrs
For `C=C(C)[C@H]1CC[C@@](C)(O)[C@@H](C2=C(O)C(CC=C(C)C)(CC=C(C)C)C(=O)C(C(=O)C(C)C)=C2O)C1`, the inhibition was “inactive”.

Test system: HCT-116
Assay: Antitumor activity against human HCT-116 cells xenografted in nude mouse assessed as decrease in tumor volume at 25 mg/kg, iv measured upto 23 days in presence of oxaliplatin
Type: functional, organism-based
Details: time <= 23.0 day
With `O=c1[nH]cc(F)c(=O)[nH]1` the Activity was “Active”.

Test system: HCT-116
Assay: Antitumor activity against human HCT-116 cells xenografted in nude mouse assessed as decrease in tumor weight at 25 mg/kg, iv measured upto 23 days in presence of oxaliplatin
Type: functional, organism-based
Details: time <= 23.0 day
With `O=c1[nH]cc(F)c(=O)[nH]1` the Activity was “Active”.

Test system: HCT-116
Assay: Antitumor activity against human HCT-116 cells xenografted in nude mouse assessed as decrease in tumor volume at 3 to 4 mg/kg, iv measured for 23 days in presence of oxaliplatin
Type: functional, organism-based
Details: dose 3-4 mg/kg, time 23.0 day
In the case of `O=c1[nH]cc(F)c(=O)[nH]1`, the Activity is reported as “Active”.

Test system: HCT-116
Assay: Antitumor activity against human HCT-116 cells xenografted in nude mouse assessed as reduction in tumor weight at 3 to 4 mg/kg, iv measured for 23 days in presence of oxaliplatin
Type: functional, organism-based
Details: dose 3-4 mg/kg, time 23.0 day
With `O=c1[nH]cc(F)c(=O)[nH]1` the Activity was “Active”.
